# Laboratory results: patent US12708673B2, “Methods and compositions related to peptides and proteins with c-terminal elements” (Sanford Burnham Prebys Medical Discovery Institute, priority 2008, dated 2026)
# Key:
# [1] = target: T1, triple mutant NS346A-E348A-T349A NRP-1 (Homo sapiens, UniProt O14786, E348A/S346A/T349A); assay: Phage binding to M21 melanoma cells transfected with NRP-1 binding pocket mutant; format: cell-based
# T1 construct: expressed in transfected cells; host or cells: M21 melanoma cells, transient transfection with lipofectamine; site-directed mutant of the wild-type NRP-1 cDNA in pcDNA3.1(+)
# T1 sequence (O14786 22-923 S346A/E348A/T349A): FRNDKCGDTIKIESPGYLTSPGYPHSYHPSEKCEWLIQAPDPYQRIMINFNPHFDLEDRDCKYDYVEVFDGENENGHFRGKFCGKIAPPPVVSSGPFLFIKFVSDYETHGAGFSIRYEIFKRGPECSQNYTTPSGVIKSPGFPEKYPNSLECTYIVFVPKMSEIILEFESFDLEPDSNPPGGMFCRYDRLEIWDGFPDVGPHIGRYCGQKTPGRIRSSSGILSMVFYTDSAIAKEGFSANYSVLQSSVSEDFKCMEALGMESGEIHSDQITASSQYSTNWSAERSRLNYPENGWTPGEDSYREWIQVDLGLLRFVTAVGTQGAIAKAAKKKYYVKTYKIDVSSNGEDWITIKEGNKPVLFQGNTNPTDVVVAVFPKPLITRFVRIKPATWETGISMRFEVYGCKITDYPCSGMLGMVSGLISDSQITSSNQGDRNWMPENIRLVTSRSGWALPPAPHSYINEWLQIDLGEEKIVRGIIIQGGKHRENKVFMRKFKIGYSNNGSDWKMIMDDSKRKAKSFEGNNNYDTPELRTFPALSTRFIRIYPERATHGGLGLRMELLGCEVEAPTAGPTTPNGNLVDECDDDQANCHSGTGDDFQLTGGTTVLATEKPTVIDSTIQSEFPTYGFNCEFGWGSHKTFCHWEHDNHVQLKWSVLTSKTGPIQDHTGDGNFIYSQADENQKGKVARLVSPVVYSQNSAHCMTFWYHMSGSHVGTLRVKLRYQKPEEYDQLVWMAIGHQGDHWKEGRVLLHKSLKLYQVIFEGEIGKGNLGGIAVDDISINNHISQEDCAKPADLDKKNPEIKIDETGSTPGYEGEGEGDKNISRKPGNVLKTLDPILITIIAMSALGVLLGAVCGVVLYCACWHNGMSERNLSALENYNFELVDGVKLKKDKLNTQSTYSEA
# Method: FIGS. 18A-18C show the identification and validation of NRP-1 as the CendR receptor. FIG. 18A: Affinity chromatography of proteins interacting with RPARPAR (SEQ ID NO: 2) peptide. PPC-1 tumor tissue was extracted with a 200 mM glucopyranoside buffer, and the extract was incubated with RPARPAR-coated (SEQ ID NO:2) beads, followed by extensive washes, and elution with 2 mM free RPARPAR (SEQ ID NO:2) peptide. Note appearance of a 130 kDa band, identified by mass spectroscopy as NRP-1, starting in the fraction 3 of the eluate. Upper panel—a silver stained gel, lower panel—an immunoblot with anti-NRP-1 antibody. FIG. 18B: Binding of RPARPAR (SEQ ID NO:2) phage to M21 melanoma cells transiently transfected with wild-type NRP-1 (NRP-1), triple mutant NS346A-E348A-T349A NRP-1 (Mutant NRP-1), or parental pcDNA3.1plasmid (Vector), and to non-transfected M21 cells. FIG. 18C: (c, d), Confocal immunofluorescence images of NRP-1 and RPARPAR (SEQ ID NO:2) T7 phage in PPC-1 cells incubated with phage at 37° C. for 40 minutes (c) and 3 hours (d). The phage and NRP-1 co-localize extensively, but there appears to be a progressive decrease in the overlap (arrowheads in c and d) and appearance of structures positive for the phage only (arrows, d). (e) Immunostaining and confocal imaging of RPARPAR (SEQ ID NO:2) phage and NRP-1 in M21 cells transiently transfected with NRP-1. […]
# PPC-1 cells = assay: T7 phage internalization into PPC-1 (PPC1) cells at 37° C. (acid wash and titration, or anti-T7 staining and confocal imaging); format: cell-based, human
# Method: FIG. 2A: Binding of T7 phage to prostate cancer cells depends on the display of a C-terminal arginine on the phage particles. PPC1 cells were incubated with T7 bacteriophage displaying derivatives of the G7 (upper graph) or RPARPAR peptide (SEQ ID NO: 2) (lower graph) at 4° C., and the bound phage was quantified by plaque assay. Binding is expressed in fold over of the non-binding G7 control phage. FIG. 2B: Phage displaying C-terminal arginine is internalized into cultured PPC1 cells (arrow, nuclear internalization; arrowhead, cytoplasmic internalization). A panel of T7 phage clones were incubated at 37° C. with PPC1 cells grown on collagen-coated coverslips, stained with anti T7 antibody and imaged by confocal microscopy.
# Phage display. For in vivo phage display, mice were injected intravenously with 10^10 plaque-forming units (pfu) of T7 phage followed by perfusion of the circulatory system and determination of the bound phage in target organs by titration. For cell binding studies on cultured cells (in vitro display) and organ-derived cell suspensions (ex vivo display), the cells were incubated with 10^9 pfu of phage at 4° C., washed, lysed, and quantified by titration. Incubation at 37° C. followed by low pH wash (glycine-HCl, pH 2.5) was used to assess the amount of internalized phage.
# For biopanning and phage binding studies (Hoffman, J. A. et al., 2004), cultured cells were grown to confluence and harvested with trypsin and mouse organs were dissociated using Medimachine (BD Biosciences, San Jose, CA). To measure phage binding, 10^6 cells in binding buffer (DMEM containing 1% BSA) were incubated with 10^9 pfu/ml of T7 phage for 1 hour at 4° C. The cells were washed 4 times with the binding buffer, lysed in LB bacterial growth medium containing 1% NP-40, and titrated. Phage internalization assays used the same procedure, except that the cells were incubated with the phage at 37° C., and that an acidic buffer (500 mM sodium chloride, 0.1 M glycine, 1% BSA, pH 2.5) was used instead of binding buffer in the second wash.
# Centrifugation on a silicone oil cushion (1.03 g/ml) was used to separate unbound phage from cells during time course experiments. Inhibitors of phage binding and internalization (heparin, chondroitin, glycocalyx removal enzymes, endocytosis inhibitors, free peptides, quantum dots and UV-inactivated phage) were added to the cells 20 minutes prior to incubation with phage. Endocytosis inhibitors used in this study were the following: nystatin (50 μg/ml), genistein (100 μg/ml), chlorpromazine (5 μg/ml), 5-(N-ethyl-N-isopropyl) amiloride (100 μM), wortmannin (10 μM).
# Immunofluorescence staining. Cultured cells (2×10^5 cells) were grown in 6-well tissue culture plates on collagen-I coated coverslips (BD Biosciences, San Jose, CA) overnight at 37° C. in 5% CO2, and incubated with 10^8 pfu of T7 phage. The cells were fixed in 4% paraformaldehyde or cold (−20° C.) methanol, and stained with antibodies. Nuclei were stained with DAPI or […]. A polyclonal rabbit anti-T7 antibody was generated in-house as described previously (Laakkonen, P. et al. 2002b), except that an additional phage purification step using […] centrifugation was included. Other primary antibodies used were rat anti-mouse CD31 monoclonal antibody (BD Biosciences), rabbit anti-NRP-1, mouse anti-human Lamp-1, mouse anti-human caveolin (Millipore, Temecula, CA), mouse anti-NRP-1 (Miltenyi Biotec Inc., Auburn, CA), mouse anti-human EEA-1 (BD Biosciences, San Jose, CA). The secondary antibodies, Alexa594 goat antibodies to mouse, rat, and rabbit immunoglobulins and Alexa488 donkey anti-rabbit antibody were from Invitrogen (Carlsbad, CA). Cells and tissue sections were examined by confocal microscopy (Fluoview 500, Olympus America Inc., Center Valley, PA).
substance,measurement,setting,value
RPARPAR [RPARPAR phage],Phage binding to M21 cells transfected with NRP-1 binding pocket mutant,[1],did not confer
same,Effect of pre-incubation with UV-inactivated phage on iRGD phage internalization,PPC-1 cells,decreased
same,Phage internalization into PPC-1 cells (in words),PPC-1 cells; 37° C.,robust binding and internalization
same,Time to perinuclear accumulation,"PPC-1 cells; phage, 37° C.",1 h
same,Time to plasma membrane association,"PPC-1 cells; phage, 37° C.",15 min
